Source: article PMC10349806 (Nature Communications, 2023)
Substitutions are numbered along the chain they refer to. “And” between values parts separate entries of the source, which are not always exact repeats. Equal entries are not always repeated.

Experiments:
PfCRT variant E75A = target: T1, PfCRT variant E75A (Plasmodium falciparum, UniProt Q9N623, A220S/I356T/K76T/M74I/N326S/N75A/Q271E/R371I); assay: CQ uptake assay, oocytes expressing E75A; format: cell-based
T1 sequence (Q9N623 1-424 M74I/N75A/K76T/A220S/Q271E/N326S/I356T/R371I): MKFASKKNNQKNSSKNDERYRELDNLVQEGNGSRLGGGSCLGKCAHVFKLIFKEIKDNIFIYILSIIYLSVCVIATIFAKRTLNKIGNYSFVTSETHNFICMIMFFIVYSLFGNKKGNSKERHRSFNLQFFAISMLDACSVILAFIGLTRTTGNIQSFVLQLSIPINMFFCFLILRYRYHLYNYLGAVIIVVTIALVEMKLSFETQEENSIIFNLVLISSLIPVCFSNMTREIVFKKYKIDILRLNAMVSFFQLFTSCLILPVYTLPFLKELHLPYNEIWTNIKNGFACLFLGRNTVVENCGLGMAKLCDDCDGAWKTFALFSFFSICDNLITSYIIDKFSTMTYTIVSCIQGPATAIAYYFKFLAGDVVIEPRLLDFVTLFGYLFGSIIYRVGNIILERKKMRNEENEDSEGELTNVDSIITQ
Procedure: (§1) Site-directed mutagenesis of PfCRT^Dd2 was performed as described using the megaprimer method with overlap extension[21],[54]. The primer pairs used are listed in Supplementary Table 6. Please note that a codon-optimized and oocyte-adapted version of PfCRT^Dd2 was used[22] (Supplementary Fig. 16). The resulting DNA fragment was cloned into the SP64T expression vector and verified by sequencing.
(§2) Oocytes were obtained as described previously. Briefly, adult (>2 years old) female X. laevis frogs (NASCO) were anesthetized in a cooled solution of ethyl 3-amino benzoate methanesulfonate (0.1%, w/v), followed by a surgical removal of parts of the ovary. The ovary lobes were carefully dissected and small pieces of oocytes were incubated in Ca^2+-free ND96 buffer (96 mM NaCl, 2 mM KCl, 1 mM MgCl2 buffered with 5 mM HEPES/NaOH, pH 7.5) supplemented with collagenase D (0.1%, w/v; Roche), BSA (0.5%, w/v), and 9 mm Na2HPO4 at 18 °C for 14-16 h while gentle shaking. After incubation, the oocytes were carefully washed several times with ND96 buffer (96 mM NaCl, 2 mM KCl, 1.8 mM CaCl2, 1 mM MgCl2 buffered with 5 mM HEPES/NaOH, pH 7.5) supplemented with 100 mg l^−1 gentamycin). Defolliculated and healthy-looking stage V-VI oocytes were manually selected for RNA microinjection. The RNA was generated as following: The codon-optimized sequences of PfCRT variants were cloned into the pSP64T expression vector. After vector linearization using the restriction endonucleases BamHI or SalI (New England Biolabs), transcription was performed using the in vitro SP6 mMessage mMachine Kit (Ambion)[34]. The obtained RNA was kept at −80 °C and diluted with nuclease-free water to a concentration of 0.6 μg μl^−1. Precision-bore glass capillary tubes (3.5-inch glass capillaries; Drummond Scientific Co.) were pulled on a vertical puller (P-87 Flaming/Brown micropipette puller, Sutter Instrument Co.), graduated, and placed on a microinjector (Nanoject II Auto-Nanoliter Injector, Drummond Scientific Co.). 50 nl of nuclease-free water alone (control oocytes) or 50 nl of 0.6 μg μl^−1 RNA were injected under stereomicroscopic control. Injected oocytes were incubated for 46–72 h at 18 °C with twice-daily buffer changes before usage in experiments.
(§3) Drug uptake assays were performed as described previously[21],[22],[24],[34]. […] The direction of radio-labeled drug transport is here from the mostly acidic extracellular solution (pH 4.5 or 6.0, as indicated) into the oocyte cytosol (pH ∼ 7.2), which corresponds to the efflux of drug from the acidic digestive vacuole (pH 5.2) into the parasite cytoplasm (pH 7.2). The topology of PfCRT in the oolemma is such that both the N- and C-terminus face the extracellular milieu[3],[22]. In the parasite, the N- and C-terminus face the lumen of the digestive vacuole. […] For determination of the amount of drug uptake for each oocyte, the reaction medium was removed and the oocytes were washed three times with 2 ml of ice-cold ND96 buffer. Each oocyte was individually transferred to a scintillation vial containing 5% sodium dodecyl sulfate (200 μl) for lysis. […] Oocytes that were injected with water instead of RNA were analyzed in parallel, representing the uptake of a drug by diffusion and/or endogenous permeation pathways. […] The specific PfCRT-mediated uptake was determined by subtracting the corresponding background value measured in water-injected oocytes from that of PfCRT-expressing oocytes. […]

PfCRT variant Y89A = target: T2, PfCRT variant Y89A (Plasmodium falciparum, UniProt Q9N623, A220S/I356T/K76T/M74I/N326S/N75E/Q271E/R371I/Y89A); assay: CQ uptake assay, oocytes expressing Y89A; format: cell-based
T2 sequence (Q9N623 1-424 M74I/N75E/K76T/Y89A/A220S/Q271E/N326S/I356T/R371I): T1 sequence (Q9N623 1-424 M74I/N75A/K76T/A220S/Q271E/N326S/I356T/R371I) with A75E, Y89A
Procedure: as §1, §2, §3

[1] = pH 4.5, single replicates, Fig 1d left
[2] = pH 6.0, single replicates, Fig 1d left

Compound: CCN(CC)CCCC(C)Nc1ccnc2cc(Cl)ccc12 (stereo not shown) [CQ, chloroquine]
- Activity at pH 4.5 (PfCRT variant E75A; E75A, 50 µM CQ, 1 h, mean ± SEM): 0.89 ± 0.11 pmol h-1 oocyte-1
- R-value (PfCRT variant E75A; E75A, CQ transport at pH 4.5 / pH 6.0): 0.51 ± 0.05
- E75A transport activity pH 4.5 (PfCRT variant E75A; [1]): 0.71 pmol oocyte-1 h-1 and 1.15 pmol oocyte-1 h-1 and 0.80 pmol oocyte-1 h-1
- E75A R-value (PfCRT variant E75A; pH 4.5 vs pH 6.0, Fig 1d left): 0.40 and 0.62 and 0.50
- E75A transport activity pH 6.0 (PfCRT variant E75A; [2]): 1.76 pmol oocyte-1 h-1 and 1.84 pmol oocyte-1 h-1 and 1.60 pmol oocyte-1 h-1
- Activity at pH 4.5 (PfCRT variant Y89A; Y89A, 50 µM CQ, 1 h, mean ± SEM): 0.73 ± 0.05 pmol h-1 oocyte-1
- R-value (PfCRT variant Y89A; Y89A, CQ transport at pH 4.5 / pH 6.0): 0.43 ± 0.06
- Y89A transport activity pH 4.5 (PfCRT variant Y89A; [1]): 0.79 pmol oocyte-1 h-1 and 0.80 pmol oocyte-1 h-1 and 0.60 pmol oocyte-1 h-1
- Y89A R-value (PfCRT variant Y89A; pH 4.5 vs pH 6.0, Fig 1d left): 0.47 and 0.40 and 0.37
- Y89A transport activity pH 6.0 (PfCRT variant Y89A; [2]): 1.68 pmol oocyte-1 h-1 and 1.99 pmol oocyte-1 h-1 and 1.64 pmol oocyte-1 h-1
